The test system of data set [1] is THP-1. Briefly: Antiinflammatory activity against human THP-1 cells assessed as inhibition of LPS-stimulated TNF-alpha production at 40 uM incubated for 1 hrs followed by LPS stimulation for 4 hrs by ELISA. In kind it is functional. The note with it: time 5 hrs.
Data set [2] relates to THP-1. Briefly: Antiinflammatory activity against human THP-1 cells assessed as inhibition of LPS-stimulated iNOS expression at 50 uM incubated for 1 hrs followed by LPS stimulation for 4 hrs by ELISA. To be noted: time 5 hrs. The data set is classed as functional. A general note: In an ELISA, binding on a coated surface is turned into a signal by an enzyme label.
In data set [3] the test system is NB-4. Briefly: Cytotoxicity against human NB-4 cells assessed as reduction in cell viability by MTT assay. In kind it is functional, cell-based. On the technique in general: Tetrazolium assays rely on reduction of a dye to a coloured formazan, in cell work by metabolically active cells.
Data set [4] deals with SH-SY5Y. Briefly: Cytotoxicity against human SH-SY5Y cells assessed as reduction in cell viability by MTT assay. The data set is classed as functional, cell-based.
For data set [5], the system named is Human immunodeficiency virus 1. Briefly: Antiviral activity against HIV-1 infected in human C8166 cells assessed as reduction in virus-induced cytopathic effect by MTT assay. The note with it: Human immunodeficiency virus 1, C8166. The data set is classed as functional, organism-based. A general note: Damage to the host cells serves as the signal in cytopathic effect assays.

Data set [6] can be described thus: Cytotoxicity against human C8166 cells assessed as reduction in cell viability by MTT assay. The data set is classed as toxicity, cell-based.
A short description of data set [7]: Selectivity index, ratio of CC50 for cytotoxicity against human C8166 cells to EC50 for antiviral activity against HIV-1 infected in human C8166 cells. In kind it is toxicity, cell-based. The note with it: read-out: Ratio CC50/EC50.
The target in data set [8] is Peroxisome proliferator-activated receptor gamma (Homo sapiens, UniProt P37231). Briefly: Binding affinity to PPARgamma (unknown origin) by competitive binding assay.
Chain of Peroxisome proliferator-activated receptor gamma (P37231 whole entry): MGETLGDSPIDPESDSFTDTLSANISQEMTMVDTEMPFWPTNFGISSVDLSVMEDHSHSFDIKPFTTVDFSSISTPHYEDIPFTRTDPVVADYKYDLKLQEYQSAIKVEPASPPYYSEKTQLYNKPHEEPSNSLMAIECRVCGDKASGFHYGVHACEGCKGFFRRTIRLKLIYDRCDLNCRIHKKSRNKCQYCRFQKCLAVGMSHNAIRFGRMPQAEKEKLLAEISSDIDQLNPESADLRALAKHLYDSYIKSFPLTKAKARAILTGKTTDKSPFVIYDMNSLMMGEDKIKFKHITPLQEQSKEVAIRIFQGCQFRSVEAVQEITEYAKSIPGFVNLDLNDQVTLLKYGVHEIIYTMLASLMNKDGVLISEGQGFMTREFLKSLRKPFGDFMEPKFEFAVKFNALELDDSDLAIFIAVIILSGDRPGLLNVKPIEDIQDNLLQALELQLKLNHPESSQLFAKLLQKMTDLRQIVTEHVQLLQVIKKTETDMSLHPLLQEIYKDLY
The subject of data set [9] is Toxoplasma gondii. Briefly: Antiparasitic activity against Toxoplasma gondii RH type 1 infected in human HFF cells assessed as inhibition of parasite proliferation incubated for 30 hrs by Hoechst-33342, YFP2 and Alexa-488 dye based high content imaging analysis. The data set is classed as functional, organism-based. To be noted: RH type 1, HFF.
The subject of data set [10] is Geobacillus stearothermophilus. Briefly: Antibacterial activity against Geobacillus stearothermophilus NCIB 8222 assessed as zone of inhibition incubated for 24 hrs by agar well diffusion method. In kind it is functional.
Data set [11] relates to Bacillus anthracis. Briefly: Antibacterial activity against clinical isolate Bacillus anthracis assessed as zone of inhibition incubated for 24 hrs by agar well diffusion method. The data set is classed as functional.
The subject of data set [12] is Bacillus subtilis. Briefly: Antibacterial activity against Bacillus subtilis NCIB 3610 assessed as zone of inhibition incubated for 24 hrs by agar well diffusion method. The data set is classed as functional.
Data set [13] relates to Bacillus cereus. Briefly: Antibacterial activity against Bacillus cereus NCIB 6349 assessed as zone of inhibition incubated for 24 hrs by agar well diffusion method. The data set is classed as functional.
In data set [14] the test system is Staphylococcus aureus. Briefly: Antibacterial activity against Staphylococcus aureus NCIB 8588 assessed as zone of inhibition incubated for 24 hrs by agar well diffusion method. In kind it is functional.
Data set [15] deals with Escherichia coli. Briefly: Antibacterial activity against Escherichia coli NCIB 86 assessed as zone of inhibition incubated for 24 hrs by agar well diffusion method. In kind it is functional.
Data set [16] has as its system Pseudomonas fluorescens. Briefly: Antibacterial activity against Pseudomonas fluorescens NCIB 3756 assessed as zone of inhibition incubated for 24 hrs by agar well diffusion method. The data set is classed as functional.
Data set [17] has as its system Klebsiella pneumoniae. Briefly: Antibacterial activity against Klebsiella pneumoniae NCIB 418 assessed as zone of inhibition incubated for 24 hrs by agar well diffusion method. In kind it is functional.
In data set [18] the test system is Shigella dysenteriae. Briefly: Antibacterial activity against Shigella dysenteriae clinical isolate assessed as zone of inhibition incubated for 24 hrs by agar well diffusion method. The data set is classed as functional.
Data set [19] relates to Candida albicans. Briefly: […] activity against Candida albicans clinical isolate assessed as zone of inhibition incubated for 24 hrs by agar well diffusion method. In kind it is functional.
Data set [20] concerns Pseudomonas aeruginosa. Briefly: Antibacterial activity against Pseudomonas aeruginosa NCIB 950 assessed as zone of inhibition incubated for 24 hrs by agar well diffusion method. In kind it is functional.
Data set [21] deals with Schistosoma mansoni. Briefly: Antischistosomal activity against adult stage of Schistosoma mansoni assessed assessed as inhibition of parasite death. In kind it is functional, organism-based.
A short description of data set [22]: Cytotoxicity against mouse Peritoneal macrophage. In kind it is toxicity, cell-based. The note with it: peritoneal macrophages.
Data set [23] relates to PMNL. Briefly: Anti-inflammatory activity in human polymorphonuclear neutrophils assessed as reduction in cell movement incubated for 24 hrs by fluorescence analysis. In kind it is functional, cell-based.
The test system of data set [24] is Leishmania major. Briefly: Antileishmanial activity against promastigote stage Leishmania major MHOM/JL/80/Friedlin overexpressing ABCI4 infected in human THP-1 cells assessed as reduction in parasite growth incubated for 72 hrs by MTT assay. The data set is classed as functional, organism-based. The note with it: THP-1, 72 h.
The test system of data set [25] is THP-1. Briefly: Cytotoxicity against human THP-1 cells assessed as reduction in cell viability incubated for 72 hrs by MTT assay. In kind it is functional, cell-based. The note with it: THP-1, 72 h.
In data set [26] the test system is Leishmania major. Briefly: Antileishmanial activity against promastigote stage Leishmania major MHOM/JL/80/Friedlin overexpressing ABCI4 infected in human THP-1 cells assessed as fold change in reduction in parasite growth incubated for 72 hrs in presence of SbIII by MTT assay. In kind it is functional.
The test system of data set [27] is Plasmodium falciparum. Briefly: Antimalarial activity against chloroquine-resistant erythrocyte stage Plasmodium falciparum assessed as growth inhibition incubated for 72 hrs by SYBR Green I dye based fluorescence analysis. In kind it is functional, organism-based.
Data set [28] has as its system Plasmodium berghei. Briefly: Antimalarial activity against liver stage transgenic Plasmodium berghei (PbGFP-Luccon) infected in human Huh-7 cells assessed as reduction in parasite load incubated for 48 hrs by firefly luciferase assay. To be noted: Huh-7, 48 h. The data set is classed as functional, organism-based.
Data set [29] deals with HEK-293T. Briefly: Cytotoxicity against human HEK293T cells assessed as reduction in cell viability incubated for 48 hrs by Alamar Blue assay. In kind it is functional, cell-based.
The test system of data set [30] is Trypanosoma brucei brucei. Briefly: Antitrypanosomal activity against Trypanosoma brucei brucei assessed as reduction in parasite viability by resorufin based fluorescence assay. The data set is classed as functional, organism-based.
Data set [31] is described as follows: Cytotoxicity against human HeLa cells assessed as reduction in cell viability. In kind it is toxicity, cell-based.
Data set [32] concerns the target Amyloid-beta precursor protein (Homo sapiens, UniProt P05067). Briefly: Binding affinity to human brain amyloid-beta fibril.
Data set [33] deals with RAW264.7. Briefly: cells. To be noted: Mus musculus.
In data set [34] the test system is Leishmania infantum. Briefly: Antileishmanial activity against luciferase expressing […] amastigote stage of Leishmania infantum MOM/MA671/TMAP263 infected in PMA differentiated human THP-1 macrophage cells assessed as reduction in parasite growth incubated for 72 hrs by luminescence analysis. The data set is classed as functional, organism-based. The note with it: MOM/MA671/TMAP263, THP-1, 72 h.

Data set [35] can be described thus: Selectivity index, ratio of IC50 for cytotoxicity against PMA differentiated human THP-1 cells to IC50 for antileishmanial activity against luciferase expressing axenic amastigote stage of Leishmania infantum MOM/MA671/TMAP263 infected in PMA differentiated human THP-1 macrophage cells. In kind it is toxicity, cell-based. To be noted: PMA-differentiated THP-1 cells, read-out: Ratio IC50.

The subject of data set [36] is Schistosoma mansoni. Briefly: Antischistosomal activity against adult stage of Schistosoma mansoni BH assessed assessed as inhibition of parasite death at 25 uM incubated for 24 hrs by light microscopy. The data set is classed as functional.
Data set [37] can be described thus: Cytotoxicity against mouse Peritoneal macrophage incubated for 24 hrs by MTT assay. In kind it is toxicity, cell-based. To be noted: peritoneal macrophages.

Chain of Amyloid-beta precursor protein (P05067 whole entry): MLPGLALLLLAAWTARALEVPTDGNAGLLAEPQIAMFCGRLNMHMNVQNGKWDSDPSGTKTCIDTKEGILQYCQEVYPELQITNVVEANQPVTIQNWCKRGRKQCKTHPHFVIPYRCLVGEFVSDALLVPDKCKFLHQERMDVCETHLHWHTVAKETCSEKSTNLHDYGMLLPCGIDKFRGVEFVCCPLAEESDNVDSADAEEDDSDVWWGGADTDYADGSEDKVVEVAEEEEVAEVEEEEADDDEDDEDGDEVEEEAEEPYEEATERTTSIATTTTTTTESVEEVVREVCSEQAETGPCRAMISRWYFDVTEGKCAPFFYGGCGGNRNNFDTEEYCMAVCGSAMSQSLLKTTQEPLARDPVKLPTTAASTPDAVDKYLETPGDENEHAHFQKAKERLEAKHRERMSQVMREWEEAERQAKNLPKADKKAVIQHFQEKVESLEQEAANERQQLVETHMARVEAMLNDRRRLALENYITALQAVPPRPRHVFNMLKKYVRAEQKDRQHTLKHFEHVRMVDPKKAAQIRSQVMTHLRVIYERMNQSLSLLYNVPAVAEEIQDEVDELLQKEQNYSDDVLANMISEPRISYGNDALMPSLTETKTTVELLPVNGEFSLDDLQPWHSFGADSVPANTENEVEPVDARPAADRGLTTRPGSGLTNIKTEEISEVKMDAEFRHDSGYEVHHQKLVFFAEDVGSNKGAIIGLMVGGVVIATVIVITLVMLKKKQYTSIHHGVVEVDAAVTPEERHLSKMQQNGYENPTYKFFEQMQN

As usually defined, the inhibition is the relative decrease from the control value, in per cent. For `O=C1/C(=C/c2ccc(CO)o2)Oc2ccccc21`, the inhibition at 40 µM in [1] is 50%. Also, the inhibition at 50 µM in data set [2] is 30%.
As a reminder, the IC50 is the concentration that inhibits the measured activity by half. Usually CC50 stands for the concentration at which the toxic effect on the cells reaches its halfway point. In the case of `COc1cc2c(cc1O)C(=O)/C(=C/c1ccc(C(C)=O)cc1)O2`, the IC50 in data set [3] turned out to be 3.4 µM; in data set [4] it was 3.5 µM; in data set [5] it was 2.4 µM. In addition, the 50% cytotoxic concentration (CC50) in data set [6] was over 200 µM. Further, in data set [7], the selectivity ratio was found to be 82.
Consider `COc1cc2c(cc1OC)C(=O)/C(=C/c1ccccc1OCCc1cccs1)C2`, for which, in data set [8], the IC50 was found to be 0.62 µM.
As to `O=C1/C(=C/c2cn(CC3CCCCC3)c3ccccc23)Oc2cc(O)cc(O)c21`, the IC50 in data set [9] amounted to 10 µM.
Consider `COc1ccc2c(c1)O/C(=C\c1cn(-c3ccccc3)nc1-c1cccs1)C2=O`, for which the “inhibition zone (IZ)” value in data set [10], in [11], in [12], in data set [13], in data set [14] and in data set [15] was 13 mm in each case. For the same molecule, the “inhibition zone (IZ)” value in data set [16], in data set [17], in data set [18], in data set [19] and in [20] was 13 mm in each case.
By EC50 is commonly meant the midpoint of the concentration-response curve. With `Cn1cc(/C=C2\Oc3ccccc3C2=O)c2ccccc21`, in data set [21], the EC50 worked out at 34 µM. For the same molecule, the half-maximal cytotoxic concentration (CC50) in [22] was over 150 µM.
As for `CCOC(OCC)c1ccc(/C=C2\Cc3ccccc3C2=O)cc1`, the IC50 in data set [23] came to 7 µM.
As for `COc1ccc(OC)c(/C=C2\Oc3cc(O)cc(O)c3C2=O)c1`, the EC50 in data set [24] worked out at 190 µM; in data set [25], 350 µM. For the same molecule, in data set [26], the “fold change (FC)” value is 6.
Regarding `O=C1/C(=C/c2cccc(-c3ccc(C(F)(F)F)cc3)c2)Nc2ccccc21`, the EC50 in data set [27] is 0.11 µM; in data set [28] it was over 100 µM; in [29], 0.81 µM.
`O=C1/C(=C/c2cccnc2Cl)Cc2ccccc21`: the half-inhibitory concentration (IC50) in data set [30] is 0.55 µM. The half-maximal cytotoxic concentration (CC50) in [31] was over 100 µM.
The Kd is a measure of binding affinity in units of concentration. A low value points to tighter binding. `O=C1/C(=C/c2ccc(-c3ccc(CO)cc3)s2)Cc2ccccc21` had a Kd in data set [32] of 0.39 µM. In [33], this molecule showed an IC50 of 4 µM.
On to `COc1cc(OC)c2c(c1)O/C(=C\c1ccccc1OC)C2=O`, for which the EC50 in data set [34] was determined as 1.3 µM. Also, the selectivity ratio in data set [35] came to 57.5.
Consider `O=C1/C(=C/c2cccs2)Oc2ccccc21`, for which the inhibition at 25 µM in data set [36] came out at 50%. The molecule further showed a CC50 at 24 h in data set [37] of over 150 µM.

For the origin of these results see ChEMBL document CHEMBL5236572, “Bioactive Aurones, Indanones, and Other Hemiindigoid Scaffolds: Medicinal Chemistry and Photopharmacology Perspectives” (J Med Chem, 2022).
